One data set relates to Spodoptera littoralis. Briefly: Contact mortality (Leaf Disc Method). The following applies: Table 3; application dose 3 cc/l (0.3%); Abbott's corrected; 24 h. The procedure: Which is compared to individual solvent, using different solvents in order to extract active principles from vegetable matrix in the step b) claimed process and a third option that is evaporated the resulting solvent in the extraction process. Vegetable matrix is Carum carvi seed. Three kinds of treatments previously mentioned are: • Treatment A: Individual solvent • Treatment B: Plant extract without solvent. The solvent was removed by vacuum concentration and the composition was prepared using the crude extract in an aqueous solution in 2% Tween^Tm24. • Treatment C: Plant extract with different solvents.
The biopesticidal activity of the different treatments is tested in vitro against two lepidopteran pests: polyphagous Spodoptera littoralis and olyphagous Tuta absoluta. Aside from benzyl alcohol, solvents frequently used to formulate chemical products such as ethanol, isopropanol and water are used in the treatments. Table 3. In vitro trials against chewing lepidopteran pests
The objective of this bioassay is to evaluate the effect of test items on the mortality of adult insects and mites in a short/medium-term (0-24 hours) by topical application. Tests were conducted in plastic net bottles. A total of 10 replicates for each treatment (tests items and negative control) were used in each experiment and temporarily replicated 3 times along the week. (Figure 4)
Numbers of live and dead adult insects and mites were counted at 24 h post-treatment. Adult insects and mites were considered dead if no movement was apparent after probing with the tip of a fine brush under stereoscopic magnifying glass. Mortality percentage was calculated in treatment and control groups. If the mortality in negative control is above 20% the test was discarded.
Means of %M were compared using a one-way analysis of variance (ANOVA, p<0.05) and LSD-test as a post hoc test to verify significant differences between single treatments using Statgraphics Centurion XVII software. When nonnormality in the data was detected, an additional Kruskal-Wallis test was conducted, and Box-and-Whisker Plot (Median Notch) was presented. • Antifeedant effects

A further data set relates to Bemisia tabaci. The data set can be described thus: Contact mortality (Leaf Disc Method). The class given is in vivo. The following applies: Table 4, application dose 3 cc/l (0.3%), Abbott's corrected.
Another data set has as its system Myzus persicae. The data set can be described thus: Contact mortality (Leaf Disc Method). The class given is in vivo. The following applies: Table 4, application dose 3 cc/l (0.3%), Abbott's corrected.
The subject of data set [1] is Frankliniella occidentalis. Briefly: Contact mortality (Leaf Disc Method). The data set is classed as in vivo. To be noted: Table 4, application dose 3 cc/l (0.3%), Abbott's corrected.
For the next data set, the system named is Tetranychus urticae. The data set can be described thus: Contact mortality (Leaf Disc Method). The class given is in vivo. The following applies: Table 5, application dose 3 cc/l (0.3%), Abbott's corrected.
In the next data set the test system is Tuta absoluta. Briefly: Contact mortality (Leaf Disc Method). The following applies: Table 3; application dose 3 cc/l (0.3%); Abbott's corrected; 24 h.
The conditions of data set [2]: general property stated in the summary; cited from earlier work.

Marks after values point to notes of the source that are not given here.

Turning to `CCO` [Ethanol (EtOH), Ethanol], in the data set on Spodoptera littoralis, the “Contact mortality (%M) Spodoptera littoralis” value was 0.0 ± 0.0 ^f %. In the data set on Bemisia tabaci, the “Contact mortality (%M) Bemisia tabaci (adults)” value was 23.5 ± 8.4 ^d %. Besides, the “Contact mortality (%M) Myzus persicae (adults)” value in the data set with Myzus persicae is reported as 16.7 ± 9.1 ^d %. In data set [1], the “Contact mortality (%M) Frankliniella occidentalis (immature)” value is reported as 0.0 ± 0.0 ^e %. In the data set with Tetranychus urticae, the “Contact mortality (%M) Tetranychus urticae (adults)” value is reported as 0.0 ± 0.0 ^e %. Moreover, the “Contact mortality (%M) Tuta absoluta” value with Tuta absoluta is 0.0 ± 0.0 ^e %.
On to `O` [Water], for which, in the data set with Spodoptera littoralis, the “Contact mortality (%M) Spodoptera littoralis” value is recorded as 0.0 ± 0.0 ^f %. Further, in the data set with Bemisia tabaci (1440 min), the “Contact mortality (%M) Bemisia tabaci (adults)” value is recorded as 0.0 ± 0.0 ^e %. Moreover, the “Contact mortality (%M) Myzus persicae (adults)” value in the data set with Myzus persicae (1440 min) is listed as 0.0 ± 0.0 ^e %. In data set [1] (1440 min), the “Contact mortality (%M) Frankliniella occidentalis (immature)” value is 0.0 ± 0.0 ^e %. Also, in the data set with Tetranychus urticae (1440 min), the “Contact mortality (%M) Tetranychus urticae (adults)” value is 0.0 ± 0.0 ^e %. Further, in the data set with Tuta absoluta, the “Contact mortality (%M) Tuta absoluta” value was 0.0 ± 0.0 ^e %.
As to `OCc1ccccc1` [Benzyl alcohol (BnOH), Benzyl alcohol], in the data set with Spodoptera littoralis, the “Contact mortality (%M) Spodoptera littoralis” value is 17.4 ± 6.2 ^de %. For the same molecule, the “Contact mortality (%M) Bemisia tabaci (adults)” value with Bemisia tabaci is listed as 49.8 ± 6.2 ^cd %. The “Contact mortality (%M) Myzus persicae (adults)” value in the data set on Myzus persicae is 19.8 ± 6.2 ^d %. In data set [1], the “Contact mortality (%M) Frankliniella occidentalis (immature)” value is reported as 12.5 ± 7.8 ^d %. Also, the “Contact mortality (%M) Tetranychus urticae (adults)” value with Tetranychus urticae is 33.4 ± 4.1 ^d %. The solubility in water in data set [2] is listed as 4 g/100 mL. Besides, the “Contact mortality (%M) Tuta absoluta” value in the data set on Tuta absoluta is on record as 29.6 ± 5.7 ^d %.
Turning to `CC(C)O` [Isopropanol (IPN), Isopropanol], in the data set with Spodoptera littoralis, the “Contact mortality (%M) Spodoptera littoralis” value is listed as 4.2 ± 6.1 ^f %. In addition, the “Contact mortality (%M) Bemisia tabaci (adults)” value in the data set with Bemisia tabaci is given as 0.0 ± 0.0 ^e %. The “Contact mortality (%M) Myzus persicae (adults)” value in the data set with Myzus persicae is 0.0 ± 0.0 ^e %. In data set [1], the “Contact mortality (%M) Frankliniella occidentalis (immature)” value is 0.0 ± 0.0 ^e %. Also, in the data set on Tetranychus urticae, the “Contact mortality (%M) Tetranychus urticae (adults)” value is on record as 0.0 ± 0.0 ^e %. Moreover, the “Contact mortality (%M) Tuta absoluta” value with Tuta absoluta is 11.4 ± 7.2 ^e %.
